Laboratory results: US6641840B2, “Sustained release formulations for growth hormone secretagogues” (Pfizer Inc., priority 2000, dated 2003)
Values joined by “and” are separate entries in the source; they are usually repeats but may differ in a detail not shown here. Equal values may be shown once. Read-outs that look alike come from different tables or passages of the source.

Columns and labels:
rat pituitary cells = test: Pituitary cell desensitization - intracellular calcium assay; assay type: cell-based
From the text: Thus, it appears that sustained release formulations would not provide the desired in vivo response. The experiment was designed so that changes in intracellular calcium concentration could be continuously monitored during successive exposures of the same cells to the indicated test substances.
Rat pituitary cells were isolated as described in Example 3 and plated onto poly-D-lysine-coated glass coverslips, one coverslip per well in 12-well plates, at a density of 3-4×10^5 cells per well. Assays were performed 3-4 days after plating. Cells were loaded with 5 μM fura-2 AM (Molecular Probes, Eugene, Oreg.), a calcium-sensitive fluorescent dye, by incubation for 30 min at room temperature. Fura-2 was dissolved in dimethylsulfoxide at 5 mM, then diluted into KRH buffer (115 mM NaCl, 5.4 mM KCl, 1.8 mM CaCl2, 1 mM MgCl2, 0.96 mM NaH2PO4, 25 mM HEPES, 6 mM glucose and 0.05% bovine serum albumin, adjusted to pH 7.3)
To assay changes in intracellular calcium concentration, a coverslip with attached cells was mounted in a perfusion chamber on the stage of an inverted microscope (Zeiss Axiovert 135 with epifluorescence, Geschaftsbereich Mikroscopie, Oberkochen, Germany) and continuously superfused at room temperature. After superfusion with KRH for 1-2 min, baseline fluorescence was recorded. Each test substance was applied for 2 min, followed by washout with KRH prior to stimulation with the next test substance. Up to 20 individual cells per field were selected for recording and were excited alternately at wavelengths of 380 nm or 340 nm (slit width 15 nm). Fluorescence emission at 510 nm was collected at 5 sec intervals by a low light CCD camera (Hamamatsu Photonics, Hamamatsu City, Japan), and digitized images for the two excitation wavelengths were analyzed using Videoprobe software (ETM Systems, Irvine, Calif.) to determine the 340 nm/380 nm fluorescence ratio for individual cells during each time interval. The 340 nm/380 nm fluorescence ratio is proportional to the concentration of intracellular calcium.

growth hormone [1] = test: Simulated sustained release study (bolus vs divided oral solution): serum growth hormone; assay type: in vivo, human; conditions: for GH Tmax: individual subjects 1-4
Procedure: This dosing regimen simulates active compound delivery by a sustained release dosage form. […] Serum concentrations of growth hormone were monitored just prior to administration of the first dose and every 20 minutes thereafter for 24 hours. Serum […] growth factor-I (IGF-I) concentrations were measured at 0, 12, and 24 hours post-first dose.
The order of treatment was defined by a randomization schedule. Following initial administration, subjects were readmitted to the clinical research facility approximately 14 days later. During the second evaluation, the subject received the treatment not used during the previous session.
Growth hormone serum concentrations were determined following administration of the bolus or divided doses. Blood samples, adequate to provide 0.5 ml of serum, were collected just prior to administration of the first dose, and every 20 minutes thereafter for 24 hours for determination of growth hormone. Specimens were collected in tubes containing no additives, and were maintained at room temperature until clotted. The serum was separated from the whole blood and frozen at −20° C. within one hour of collection.
Growth hormone quantitation of the human serum samples was conducted using luminescence measurements by means of an Immulite® system (Diagnostic Products Corporation, Los Angeles, Calif.). All analyses were performed using a hGH Immulite® kit containing hGH test units (LGH 1), hGH reagent wedge (LGH 2) and hGH adjustors (LGHL and LGHH). These kits were obtained from DPC (Diagnostic Products Corporation, Los Angeles, Calif.). In addition, hGH sample diluent (LGHZ), chemiluminescent substrate module (LSUBX), probe wash module (LPWSZ) and the necessary Immulite® accessories were obtained from DPC. For each new kit, the Immulite® system was calibrated by running two adjuster samples (LGHL and LGHH) obtained from the manufacturer, containing a […] concentration of hGH in equine serum, respectively. […] The resulting luminescence was determined by means of an Immulite® system.

[2] = Osmotic agent selection based on active compound solubility screening; assay type: physicochemical; conditions: 37 °C, aqueous with cosolvent or surfactant or cyclodextrin
Procedure: The osmogens were screened by preparing a saturated solution (unless otherwise noted) of the candidate osmogen in water at 37° C. for 2 hours, and filtering the undissolved portion as described in Example 5.

[3] = test system: insulin-like growth factor binding protein 3 (IGFBP-3); test: Clinical study: IGFBP-3; assay type: in vivo, human; conditions: first leg, immediate release dosing
From the text: (All dosage forms in this part of the study were immediate release dosage forms.)
The primary efficacy endpoint was the percentage change from baseline in IGF-1. Secondary outcomes included insulin-like growth factor binding protein 3 (IGFBP-3), cholesterol subfractions, and percent changes in total adipose and total lean tissue. Changes in each of the secondary efficacy measures over time were examined systematically either graphically or in tabular form and summarized using appropriate descriptive statistics as is well known in the art.

growth hormone [4] = test: Clinical extension study: growth hormone secretion profile (GH peaks); assay type: in vivo, human
Procedure: In addition, an extension study was conducted to evaluate the relationship between peak GH concentrations or IGF-I versus surrogate responses such as lipid concentrations and body composition. A sustained release (SR) formulation was also evaluated, either alone or combined with an immediate release (IR) formulation (24-30 patients per group). [16 mg (10 SR, 6 IR) h.s. (h.s. means at bedtime); 16 mg (10 SR, 6 IR) h.s. every third day; 16 mg SR h.s.; and placebo.] The formulations are set forth below.
In addition to this schedule, subjects at selected sites in the extension study were studied during two overnight admissions on the first night of dosing and again on day 28 of dosing. Growth hormone secretion and pharmacokinetic sampling was carried out.
A follow-up evaluation was made at 1, 2, and 4 weeks. Vital signs were obtained and the skin of the face, trunk and upper extremities was inspected.
In addition, subjects at selected study centers were admitted to an overnight unit on day 28 of dosing. Growth hormone secretion profile, pharmacokinetics, and vital sign determination were carried out.

**Q.** What does the source list for CN1N=C2CCN(C(=O)[C@@H](COCc3ccccc3)NC(=O)C(C)(C)N)C[C@@]2(Cc2ccccc2)C1=O.O=C(O)C(O)C(O)C(=O)O [Compound A]?
**A.** calcium flux on re-exposure to Compound A after washout (rat pituitary cells; cells that initially responded to Compound A or GHRP-6): refractory; desensitization between GHRH and Compound A (rat pituitary cells; intracellular calcium, successive exposures): no desensitization; cellular responses (intracellular calcium) on repeated exposure (rat pituitary cells; successive 2 min exposures with washout): homologous desensitization; GH Tmax (growth hormone [1]; 10 mg bolus, L-tartrate): 1 h (3×) and 0.67 h; GH Tmax (growth hormone [1]; 10 mg divided, in h): 1; frequency and amplitude of secondary GH peaks (growth hormone [1]; simulated sustained release of 10 mg compared to bolus): increased; solubility at 5 min ([2]; filtrate of osmogen solution in water, fructose solution 250 mg/ml (below saturation), read-out: COMPOUND A Solubility): < 50 mg/mL; solubility at 5 min ([2]; filtrate of osmogen solution in water, visual screening, read-out: active compound solubility measured in this manner): > 150 mg/mL; solubility at 5 min ([2]; filtrate of saturated lactose solution in water, saturated lactose solution, approx. 200 mg/ml, read-out: COMPOUND A Solubility): > 150 mg/mL; solubility at 5 min ([2]; filtrate of saturated mannitol solution in water, saturated mannitol solution, approx. 180 mg/ml, read-out: COMPOUND A Solubility): > 150 mg/mL; solubility at 5 min ([2]; filtrate of saturated sodium bitartrate solution in water, saturated sodium bitartrate solution, approx. 110 mg/ml, read-out: COMPOUND A Solubility): > 150 mg/mL; solubility at 5 min ([2]; sorbitol solution in water, 250 mg/ml (below saturation), sorbitol solution 250 mg/ml (below saturation), read-out: COMPOUND A Solubility): > 150 mg/mL; solubility at 5 min ([2]; xylitol solution in water, 250 mg/ml (below saturation), xylitol solution 250 mg/ml (below saturation), read-out: COMPOUND A Solubility): < 50 mg/mL; IGFBP3 [3]: increased; GH peak heights, Q 3 day group greater than QD group (growth hormone [4]; 16 mg (10 SR, 6 IR) every third day vs daily): 1.52 ng/mL; GH peaks, average (growth hormone [4]; group receiving SR alone (16 mg SR h.s.), after 4 weeks): 2 ng/mL; GH peaks, average (growth hormone [4]; group receiving SR alone (16 mg SR h.s.), at baseline): less than 4 ng/ml; GH peaks, average (growth hormone [4]; groups receiving 6 mg IR (with 10 mg SR), at baseline): ≥ 15 ng/mL; GH peaks, average (growth hormone [4]; groups receiving 6 mg IR (with 10 mg SR), by 4 weeks): 4 to 6 ng/mL
